Series [1] concerns lipid peroxidation in the Substantia Nigra. In kind it is in vivo. Particulars: Substantia Nigra, 20 hours after Paraquat alone, 50 μg microinfusion. Here is the method: Microinfusion of 50 μg of Paraquat into the Substantia Nigra (n=20 rats) led to an increase in motor activity with the animals performing jumps and moving in circles in a contralateral direction relative to the injection position, about 24 minutes later; all of the animals were dead 24±2.5 hours after infusion. […]
[…]. Enzymol. 52, 302-310, 1978.

The test system of series [2] is rats receiving Paraquat into Substantia Nigra. In kind it is in vivo, rat. From the text:
The Paraquat/rat/PS experimental model was therefore selected as the most indicative for checking the efficacy of chemical compounds according to the present invention; of these, two anti-oxidants designated MP1002 and MP1001 were used in the tests:
Male Sprague Dawley rats (210-220 g weight) were kept on a standard laboratory diet supplemented with “Nossan Pellets” (both the animals and the pellets are available from Nossan Company, Milan, Italy) and were housed for three weeks (relative humidity 50%±10%, temperature 22° C.±1 and in a light/darkness cycle of 12 hours/12 hours, with first light at 7.30 a.m.) prior to the tests; food and water were available ad libitum.
Prior to treatment, the rats were anaesthetized by intraperitoneal injection of 380 mg/kg weight of chloral hydrate; a stainless steel guide cannula (size 25) was implanted unilaterally in the Substantia Nigra with stereotaxic guiding and was secured to the cranium with dental acrylic material.
The animals (20 per test group) were allowed a recovery period of seven days prior to treatment; during this period no change in motor activity or posture was observed. Microinfusions were performed by means of a 10 μl Hamilton syringe connected to an injection cannula by means of a Teflon tube. The compounds or the vehicle (0.8% NaCl) were injected at a total volume of 1 μl/minute.
Microinfusion of 50 μg of Paraquat into the Substantia Nigra (n=20 rats) led to an increase in motor activity with the animals performing jumps and moving in circles in a contralateral direction relative to the injection position, about 24 minutes later; all of the animals were dead 24±2.5 hours after infusion. A further twenty animals were infused with Paraquat and twenty with Paraquat plus vehicle; about ten of the animals for each group survived 20 hours after treatment and were used to determine the development of lipid peroxidation in the Substantia Nigra.

Setting [3] is: 50 μg Paraquat into the Substantia Nigra, n=20 rats.
Setting [4] is: Paraquat alone, 50 μg microinfusion into Substantia Nigra.

The values below come from patent US8461186B2, “Use of N-piperidine derivatives for the treatment of neurodegenerative pathologies” (Medestea Research & Production S.p.A., priority 2004, dated 2013).

On to `C[n+]1ccc(-c2cc[n+](C)cc2)cc1` [Paraquat, reference compound], for which the “Lipid Peroxidation” value in series [1] was 14.6 ± 1.34 nmol MDA × h^−1 × mg prot^−1. Moreover, in series [2] (setting [3]), the “time after infusion at which all of the animals were dead” value was found to be 24 ± 2.5 h and the “time to increase in motor activity (jumps, contralateral circling) after microinfusion” value was “about 24 minutes”. Moreover, in series [2] (setting [4]), the “Duration (seizures)” value came out at 270 ± 15 min, the “Latency (seizures)” value was determined as 25 ± 4 min and the Mortality is listed as 100 (20/20) %.
